Assay results as given in ChEMBL document CHEMBL1130659, “Macrolide biosynthesis: a single cytochrome P450, PicK, is responsible for the hydroxylations that generate methymycin, neomethymycin, and picromycin in Streptomyces venezuelae” (Bioorg Med Chem Lett, 1998).

Tests used:
Assay type in all cases: ADME
[1] = Catalytic constant expressed as Kinetic behavior of enzyme (PicK/6-His)
[2] = Kinetic behavior of the enzyme (PicK/6-His) was evaluated
[3] = Ratio of kcat to Km was evaluated.
[4] = Michaelis behavior of the enzyme (PicK/6-His)

k cat [1]	Km [2]	kcat/Km [3]	Km [4]	SMILES
2 s⁻¹	0.44 mM	0.023 µM⁻¹ s⁻¹	88 µM	CC[C@H]1OC(=O)[C@H](C)C(=O)[C@H](C)[C@@H](O[C@@H]2O[C@H](C)C[C@H](N(C)C)[C@H]2O)[C@@H](C)C[C@@H](C)C(=O)/C=C/[C@H]1C
1.1 s⁻¹	2.2 mM	0.008 µM⁻¹ s⁻¹	130 µM	CC[C@H]1OC(=O)[C@H](C)[C@@H](O[C@@H]2O[C@H](C)C[C@H](N(C)C)[C@H]2O)[C@@H](C)C[C@@H](C)C(=O)/C=C/[C@H]1C
